Measured values taken from ChEMBL document CHEMBL1201862, “PubChem BioAssay data set” (2004).
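These data come from cells grown in 96-well plates and exposed to compound for 48 hours at five concentrations. GI50: concentration for 50% inhibition of growth.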 Calls of active or inactive are those of the source. No stated cut-off is given here; in the data, active = GI50 up to about 1.1 µM and inactive = higher. Peptide text beside a SMILES is read from it. * marks the point of attachment. Boc = CC(C)(C)OC(=O)*

Tests used:
Test in all cases: DTP human tumour cell line panel, 48 h
[1] = tested on: MDA-N
[2] = tested on: SK-OV-3
[3] = tested on: DU-145
[4] = tested on: SF-295
[5] = tested on: Hs-578T
[6] = tested on: HCT-116
[7] = tested on: HCT-15
[8] = tested on: LOX IMVI
[9] = tested on: CCRF-CEM
[10] = tested on: NCI-H23
[11] = tested on: PC-3
[12] = tested on: NCI/ADR-RES
[13] = tested on: KM12
[14] = tested on: SF-268
[15] = tested on: SN12C
[16] = tested on: A549
[17] = tested on: SK-MEL-2
[18] = tested on: TK-10
[19] = tested on: CAKI-1
[20] = tested on: HT-29

Compound	GI50 [1]	GI50 [2]	GI50 [3]	GI50 [4]	GI50 [5]	GI50 [6]	GI50 [7]	GI50 [8]	GI50 [9]	GI50 [10]	GI50 [11]	GI50 [12]	GI50 [13]	GI50 [14]	GI50 [15]	GI50 [16]	GI50 [17]	GI50 [18]	GI50 [19]	GI50 [20]
CCN(CC)Cc1nc(C2CCC([N+](=O)[O-])O2)no1 (stereo not given)	17.4 µM (inactive)	> 100 µM (inactive)	25.7 µM (inactive)	30.1 µM (inactive)	31.6 µM (inactive)	24.3 µM (inactive)	19.4 µM	31.4 µM (inactive)	31.9 µM (inactive)	19.3 µM (inactive)	27.3 µM (inactive)	26.7 µM (inactive)	26.5 µM (inactive)	24.5 µM (inactive)	47.1 µM (inactive)	39.8 µM (inactive)	21.7 µM (inactive)	> 100 µM (inactive)	72.8 µM (inactive)	17 µM (inactive)
COc1ccc2[nH]c3c(C)c4ccnc(NCCCN(C)CCCNC(=O)NCCCN(C)CCCNc5nccc6c(C)c7[nH]c8ccc(OC)cc8c7c(C)c56)c4c(C)c3c2c1	0.748 µM (active)	1.67 µM (inactive)	1.19 µM (inactive)	0.566 µM (active)	0.977 µM (active)	0.208 µM (active)	1.26 µM	0.855 µM (active)	0.147 µM (active)	0.989 µM (active)	0.92 µM (active)	2.14 µM (inactive)	1.03 µM (active)	0.551 µM (active)	0.269 µM (active)	0.249 µM (active)	1.35 µM (inactive)	1.48 µM (inactive)	0.716 µM (active)	0.245 µM (active)
OC1c2ccccc2CC12Cc1ccccc1C2 (stereo not given)	> 100 µM (inactive)	> 100 µM (inactive)	> 100 µM (inactive)	> 100 µM (inactive)	> 100 µM (inactive)	79.4 µM (inactive)	> 100 µM	> 100 µM (inactive)	> 100 µM (inactive)	> 100 µM (inactive)	> 100 µM (inactive)	54.7 µM (inactive)	> 100 µM (inactive)	> 100 µM (inactive)	78.9 µM (inactive)	99.5 µM (inactive)	> 100 µM (inactive)	> 100 µM (inactive)	> 100 µM (inactive)	86.7 µM (inactive)
O=C(NO)c1ccc(OCc2ccccc2)cc1	25.9 µM (inactive)	37.2 µM (inactive)	14.3 µM (inactive)	26.2 µM (inactive)	65.3 µM (inactive)	12.1 µM (inactive)	15 µM	19.1 µM (inactive)	6.89 µM (inactive)	14.1 µM (inactive)	23.3 µM (inactive)	4 µM (inactive)	25.5 µM (inactive)	39.7 µM (inactive)	43.4 µM (inactive)	33 µM (inactive)	30.3 µM (inactive)	23.7 µM (inactive)	18.1 µM (inactive)	29.2 µM (inactive)
CSCCC(NC(=O)C(CC(C)C)NC(=O)CNC(=O)OC(C)(C)C)C(=O)N(C)C (stereo not drawn) (Boc-Gly-Leu-Met-NMe2; configuration not given here)	> 100 µM (inactive)	> 100 µM (inactive)	> 100 µM (inactive)	> 100 µM (inactive)	4 µM (inactive)	> 100 µM (inactive)	> 100 µM	> 100 µM (inactive)	> 100 µM (inactive)	> 100 µM (inactive)	> 100 µM (inactive)	> 100 µM (inactive)	> 100 µM (inactive)	> 100 µM (inactive)	> 100 µM (inactive)	> 100 µM (inactive)	> 100 µM (inactive)	> 100 µM (inactive)	> 100 µM (inactive)	> 100 µM (inactive)
CC(=O)NCC1(c2ccccc2)CCN(CC2COc3ccccc3O2)CC1 (stereo not given) [ACOXATRINE]	> 100 µM (inactive)	> 100 µM (inactive)	> 100 µM (inactive)	> 100 µM (inactive)	> 100 µM (inactive)	> 100 µM (inactive)	> 100 µM	62.2 µM (inactive)	> 100 µM (inactive)	> 100 µM (inactive)	> 100 µM (inactive)	> 100 µM (inactive)	> 100 µM (inactive)	> 100 µM (inactive)	> 100 µM (inactive)	> 100 µM (inactive)	> 100 µM (inactive)	> 100 µM (inactive)	> 100 µM (inactive)	39.4 µM (inactive)
